Test [1] relates to C. albicans D27 (FLC-sensitive clinical isolate). Put plainly: Broth dilution IC50 determination. In kind it is cell-based. The note with it: Candida albicans, 24 h; read-out: Anti-Candida Activity (IC50± S.D.) C. albicans D27. Here is the method:
(§1) Broth dilution technique was employed to determine the IC50 values of all the synthesized 1,2,3 triazole derivatives (3a-c) against C. albicans ATCC 90028, C. glabrata ATCC 90030, C. tropicalis ATCC 750 and four clinical isolates of C. albicans namely D27, D31, D39 (FLC-sensitive) and D15.9 (FLC-resistant). The strains were maintained on yeast extract:peptone:dextrose ([…]) nutrient agar (2.5%) slants at 4°C. The test compounds were dissolved in DMSO with less than 4% concentration of it in the final test volume. Different concentrations (1000… 7.8 μg/mL) of test compounds in Sabouraud dextrose (SD) broth medium were dispensed into the wells, then inoculated with the test organism with approx. 2.5 × 10^3 cells/mL and incubated at 37°C for 24 h. After incubation period, the optical density was measured at 600 nm by using Thermo Scientific Multiskan Go plate reader. […] All the experiments were done in triplicate at separate times.

The subject of test [2] is C. albicans D39 (FLC-sensitive clinical isolate). Put plainly: Broth dilution IC50 determination. In kind it is cell-based. Conditions: Candida albicans, 24 h; read-out: Anti-Candida Activity (IC50± S.D.) C. albicans D39. Here is the method: as §1
For orientation: Dilution methods test growth across graded concentrations, often in twofold steps.

The next test relates to C. tropicalis ATCC 750. Put plainly: Broth dilution IC50 determination. In kind it is cell-based. The note with it: Candida tropicalis, ATCC750, SD broth, 37°C, 24 h, OD 600 nm, read-out: Anti-Candida Activity (IC50± S.D.) C. tropicalis ATCC750. Here is the method:
as §1

Test [3] relates to C. albicans D31 (FLC-sensitive clinical isolate). Nature of the test: Broth dilution IC50 determination. In kind it is cell-based. The note with it: Candida albicans, 24 h; read-out: Anti-Candida Activity (IC50± S.D.) C. albicans D31. Here is the method: as §1
The test system of a further test is C. albicans ATCC 90028. Nature of the test: Broth dilution IC50 determination. In kind it is cell-based. Conditions: Candida albicans, ATCC90028, SD broth, 37°C, 24 h, OD 600 nm, read-out: Anti-Candida Activity (IC50± S.D.) C. albicans ATCC90028. Here is the method: as §1
Another test relates to C. glabrata ATCC 90030. Nature of the test: Broth dilution IC50 determination. The note with it: Nakaseomyces glabratus, ATCC90030, SD broth, 37°C, 24 h, OD 600 nm, read-out: Anti-Candida Activity (IC50± S.D.) C. glabrata ATCC90030. In kind it is cell-based. Here is the method: as §1
Test [4] has as its target T1, plasma membrane H+ ATPase (Candida albicans, UniProt P28877).
T1 construct: endogenous in cells; host or cells: C. albicans ATCC 90028; clinical isolates C. albicans D27 (FLC-susceptible) and D15.9 (FLC-resistant); mid-log phase whole cells
Put plainly: cell-based. On the set-up: species or system C. albicans D15.9 (FLC-resistant). The note with it: for inhibition at 100 µg/mL: read-out: Inhibition of H+ extrusion. Here is the method:
The proton pumping activity of C. albicans was determined by monitoring acidification of external medium by measuring pH as describe earlier. In brief, the mid-log phase cells were harvested from SD medium by centrifugation at 3000 rpm for 15 min which is followed by three washings with phosphate buffer saline (PBS). A solution containing 0.1 M KCl and 0.1 mM CaCl2 in distilled water was prepared. Compounds 3a and 3b at the concentrations of 50 and 100 μg/mL were separately added in this solution. […] Initial pH was adjusted to 7.0 using 0.01 M HCl/NaOH. Approximately 0.2 g of cells were suspended in each set of solution. Suspension was kept in a double-jacketed glass container with constant stirring. Again, the pH of suspension was maintained as 7.0 for 1 min by using 0.01 N NaOH. The rate of H^+ extrusion was then monitored and calculated from the volume of 0.01 N NaOH consumed per min per mg weight of cells. Glucose has been reported as the stimulator of proton extrusion pump. Therefore above experiment was also repeated in the presence of 5 mM of glucose.

The next test concerns ergosterol biosynthesis. Nature of the test: Ergosterol estimation assay.
In the next test the test system is phospholipase secretion. Put plainly: Phospholipase assay (egg yolk agar, Pz value). Type of test: cell-based, C. albicans D15.9 (FLC-resistant). Here is the method: Phospholipase activity was performed using the method of Price et al. (1982) with minor modifications. The cells were incubated at 37°C for 18 h and then centrifuged at 3000 rpm for 5 min. The pellet obtained was washed with PBS twice to remove the residual culture medium. […] Volumes of 1 μL were placed at equidistant points on phospholipase agar media plates (1% peptone; 3% glucose; 5.73% NaCl; 0.055% CaCl2 with 10% (v/v) egg yolk emulsion) and incubated at 37°C for 4 days. The secretion of phospholipases was determined by the formation of opaque zones due to precipitation around the yeast colonies. The assay was conducted in duplicate. Pz values were calculated as follows: Pzvalue=diameterofcolony/diameterofcolony+diameterofzoneofprecipitaion

Test [5] has as its target T1, plasma membrane H+ ATPase. Put plainly: Measurement of intracellular pH (pHi). In kind it is cell-based, C. albicans D15.9 (FLC-resistant). The note with it: 100 μg/mL; untreated 6.4. Here is the method: In yeast cells, plasma membrane H^+-ATPase helps to maintain internal pH between 6.0 and 7.5. Intracellular pH (pHi) was measured as reported earlier by Manzoor et al.. Mid-log phase cells were harvested from SD medium and washed thrice with PBS. Subsequently, cells (0.1 g) were suspended in 5 mL solution of 0.1 M KCl, and 0.1 mM CaCl2 in distilled water. Compounds 3a and 3b were added to the suspension at a desired concentration of 100 μg/mL. […] Initial pH of the suspension was adjusted to 7.0 in each case and incubated for 30 min at 37°C with constant stirring. After incubation, the pH of suspension was again adjusted to 7.0 followed by the addition of nystatin (20 μM) and incubation at 37°C for 1 h. The change in pH of the suspension was monitored on a pH meter with constant stirring. The value of external pH at which nystatin permeabilization induced no further shift was taken as an estimate of pHi.

Where [6] appears, read: 50 μg/mL in presence of glucose (5 mM).
The mark [7] stands for this setting: 100 μg/mL in presence of glucose (5 mM).

≈ marks a conversion by molar mass, not a printed value.

T1 sequence (P28877 whole entry): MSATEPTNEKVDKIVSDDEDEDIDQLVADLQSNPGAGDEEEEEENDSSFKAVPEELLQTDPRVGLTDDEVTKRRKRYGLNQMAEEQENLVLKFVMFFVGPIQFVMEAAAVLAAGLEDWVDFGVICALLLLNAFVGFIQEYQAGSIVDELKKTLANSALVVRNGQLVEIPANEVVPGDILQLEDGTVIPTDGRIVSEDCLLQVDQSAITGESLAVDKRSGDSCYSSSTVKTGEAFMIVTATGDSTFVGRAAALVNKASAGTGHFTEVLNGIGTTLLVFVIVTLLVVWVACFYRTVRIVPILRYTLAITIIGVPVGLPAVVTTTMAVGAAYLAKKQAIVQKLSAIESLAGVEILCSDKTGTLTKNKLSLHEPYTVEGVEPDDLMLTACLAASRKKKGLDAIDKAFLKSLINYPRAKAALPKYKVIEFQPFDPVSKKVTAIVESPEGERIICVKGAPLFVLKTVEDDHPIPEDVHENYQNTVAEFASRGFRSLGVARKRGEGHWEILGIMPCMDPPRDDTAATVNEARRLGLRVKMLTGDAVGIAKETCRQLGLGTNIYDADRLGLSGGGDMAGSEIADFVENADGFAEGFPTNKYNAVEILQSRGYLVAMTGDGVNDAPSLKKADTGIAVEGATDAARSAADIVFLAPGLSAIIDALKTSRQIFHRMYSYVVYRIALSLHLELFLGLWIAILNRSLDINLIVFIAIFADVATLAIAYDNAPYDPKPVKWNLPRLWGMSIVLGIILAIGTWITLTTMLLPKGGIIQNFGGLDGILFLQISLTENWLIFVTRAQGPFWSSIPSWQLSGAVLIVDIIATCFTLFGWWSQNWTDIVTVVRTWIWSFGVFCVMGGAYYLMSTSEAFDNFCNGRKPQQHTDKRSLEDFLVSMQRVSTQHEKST

The term IC50 denotes the concentration that gives 50% inhibition. As usually defined, the inhibition is how much of the control response was suppressed. Turning to `Clc1ccc(OCc2cn(Cc3ccccc3)nn2)c2ncccc12` [Compound 3b, 8-((1-Benzyl-1H-1,2,3-triazol-4-yl)methoxy)-5-chloroquinoline], the IC50 in [1] was 33.7 ± 1.51 µg/mL (≈ 96.1 µM); in test [2], 47.1 ± 0.39 µg/mL (≈ 134 µM); with C. tropicalis ATCC 750 it was 23.6 ± 0.83 µg/mL (≈ 67.3 µM); in [3] it was 41.5 ± 1.24 µg/mL (≈ 118 µM); with C. albicans ATCC 90028, 25.4 ± 0.76 µg/mL (≈ 72.4 µM); in the test on C. glabrata ATCC 90030, 73.3 ± 1.41 µg/mL (≈ 209 µM). In addition, the “Range of relative H+ efflux rate” value is 25.00 ± 1.2 ×10^−6 mol min^−1 mg cells^−1 in test [4] (setting [6]); 18.30 ± 0.9 ×10^−6 mol min^−1 mg cells^−1 in [4] (50 μg/mL, no glucose); 21.00 ± 1.0 ×10^−6 mol min^−1 mg cells^−1 in test [4] (setting [7]); 16.00 ± 0.8 ×10^−6 mol min^−1 mg cells^−1 in test [4] (100 μg/mL, no glucose). In [4], the inhibition at 100 µg/mL was 42%. Besides, the “Decrease in total ergosterol content” value is on record as 100% in the test on ergosterol biosynthesis (at MIC, 16 h) and 98% in the test on ergosterol biosynthesis (at MIC/2, 16 h). For the same compound, in the test on ergosterol biosynthesis (at MIC/4, 16 h), the “Mean decrease in total ergosterol content” value is listed as 23%. For the same compound, the “Decrease of phospholipase secretion” value in the test on phospholipase secretion (at MIC, 1 h exposure) was found to be 30%; in the test with phospholipase secretion (at MIC/4, 1 h exposure) it was 25%. The “Intracellular pH (pHi)” value in [5] turned out to be 4.7.

As for `c1ccc(Cn2cc(COc3cccc4cccnc34)nn2)cc1` [Compound 3a], the IC50 is 1.9 ± 0.09 µg/mL (≈ 6.01 µM) in [1]; 4.1 ± 0.02 µg/mL (≈ 13 µM) in test [2]; 3.6 ± 0.07 µg/mL (≈ 11.4 µM) with C. tropicalis ATCC 750; 3.3 ± 0.065 µg/mL (≈ 10.4 µM) in [3]; 0.044 ± 0.11 µg/mL (≈ 0.139 µM) in the test on C. albicans ATCC 90028; 12.02 ± 0.02 µg/mL (≈ 38 µM) in the test with C. glabrata ATCC 90030. The “Range of relative H+ efflux rate” value in test [4] (setting [6]) is 28.30 ± 1.4 ×10^−6 mol min^−1 mg cells^−1; in test [4] (50 μg/mL, no glucose), 21.60 ± 1.0 ×10^−6 mol min^−1 mg cells^−1; in [4] (setting [7]), 20.00 ± 1.0 ×10^−6 mol min^−1 mg cells^−1; in [4] (100 μg/mL, no glucose), 16.70 ± 0.8 ×10^−6 mol min^−1 mg cells^−1. Also, the inhibition at 100 µg/mL in [4] came out at 40%. The “Mean decrease in total ergosterol content” value in the test on ergosterol biosynthesis (above MIC/2, 16 h) is recorded as 100%; in the test on ergosterol biosynthesis (at MIC/4, 16 h) it was 30%. Also, the “Decrease of phospholipase secretion” value in the test on phospholipase secretion (at MIC, 1 h exposure) is 34%; in the test on phospholipase secretion (at MIC/4, 1 h exposure), 25%. Also, in [5], the “Intracellular pH (pHi)” value was found to be 5.4.

The record behind these values is article PMC5400251, “Effect of quinoline based 1,2,3-triazole and its structural analogues on growth and virulence attributes of Candida albicans” (PLoS ONE, 2017).
